Data: patent US20210338558A1, “USE OF COLLAGEN BINDING DOMAINS TO DELIVER PRODUCTS TO SKIN” (Fabius Biotechnology, priority 2018, published 2021)
Where no end group is shown, it is not given here.

Columns and labels:
[1] = test system: collagen; conditions: by binding competition, on a molar basis, relative to intact VWF; cited from earlier work
[2] = test system: native collagen; assay: binding of growth factors carrying the collagen binding decapeptide to collagen
From the text: (§1) Studies with targeted peptides used the decapeptide sequence: Trp-Arg-Glu-Pro-Ser-Phe-Met-Ala-Leu-Ser (WREPSFMALS) (SEQ ID NO: 1). It was linked to either TGF-β or BMP-3 at the C-terminus of the corresponding growth factors.
Polypeptide growth factors, of the TGF-β family, and others, were constructed to contain, at the C-terminal end, a decapeptide with high affinity for collagen (Andrades, Nimni et al. 1996; Tuan, Cheung et al. 1996; Andrades, Han et al. 1999; Hall, Han et al. 2001; Han, Perelman et al. 2002; Romijn, Westein et al. 2003). This was intended to provide concentration of the growth factors where needed for maximum efficacy. In compositions and methods according to the present invention, this effect can be used for delivery of the skin care agent or cosmeceutical to the skin.
This is compared to the behavior of TGF-β without the collagen binding domain, which has poor affinity for collagen.

[3] = biological activity of the covalently linked growth factors; conditions: growth factor linked at its C-terminus to decapeptide WREPSFMALS
From the text: as §1

## WREPSFCALS [SEQ ID NO: 2]
[1]
  binds more efficiently to collagen than the intact VWF: 20 times

## TGF-β without the collagen binding domain: TGF-β lacking the collagen binding domain, comparator in FIG. 4 [reference compound]
[2]; FIG. 4
  affinity for collagen: poor affinity

## WREPSFMALS [SEQ ID NO: 1]
[1]
  binds more efficiently to collagen than the intact VWF: 20 times

## TGF-β with a collagen binding domain: TGF-β linked at the C-terminus to the decapeptide WREPSFMALS; genetically engineered fusion protein (FIG. 3)
[3]
  biological activities retained after linkage: retained significant biological activities
[2]; FIG. 4, urea
  dissociation of binding to collagen: requires a high concentration of urea for dissociation
[2]; growth factor linked at its C-terminus to decapeptide WREPSFMALS
  binding affinity towards native collagen: strong binding affinity
